{
  "source": "patent US8975015B2",
  "about": "“Antimicrobial compounds” (priority 2009, dated 2015)",
  "key": {"[1]": {"system": "Mycobacterium tuberculosis (replicating TB)", "test": "microbe, parasite or virus in culture", "assay_type": "cell-based", "settings": "Mycobacterium tuberculosis, replicating TB, read-out: MABA MIC"}, "[2]": {"system": "non-replicating TB", "test": "microbe, parasite or virus in culture", "assay_type": "cell-based, Mycobacterium tuberculosis", "settings": "Mycobacterium tuberculosis, read-out: LORA MIC"}, "[3]": {"settings": "human, microsomes"}, "[4]": {"settings": "mouse, microsomes"}, "[5]": {"system": "M. smegmatis", "test": "MIC against M. smegmatis", "assay_type": "cell-based", "settings": "Mycolicibacterium smegmatis"}, "[6]": {"assay_type": "in vitro ADME", "settings": "simulated gi fluid"}, "[7]": {"system": "cultured kidney cells from the African Green monkey", "test": "cells", "assay_type": "cell-based", "settings": "Chlorocebus sabaeus"}, "[8]": {"assay_type": "in vitro ADME", "description": "Compound P1 was also tested for stability in simulated intestinal fluid."}},
  "note": "Like-named read-outs stand apart in the source and are kept apart here.",
  "data": [
    {"compound": "O=C1C=Cc2nocc2/C1=C1/Nc2cc(Cl)ccc2C1=O", "note": "[Example 2, 4-(6-chloro-3-oxoindolin-2-ylidene)benzo[c]isoxazol-5(4H)-one]", "values": [
      {"measurement": "MIC", "setting": "[1]; 8-0.03 μM test concentration", "result": 1.9, "unit": "µM"},
      {"measurement": "MIC", "setting": "[1]; 32-0.2 μM test concentration", "result": 1.92, "unit": "µM"}
    ]},
    {"compound": "O=C1C=Cc2nocc2/C1=C1/Nc2ccc(Cl)cc2C1=O", "note": "[Example 3, 4-(5-chloro-3-oxoindolin-2-ylidene)benzo[c]isoxazol-5(4H)-one]", "values": [
      {"measurement": "MIC", "setting": "[1]; 8-0.03 μM test concentration", "result": 0.82, "unit": "µM"},
      {"measurement": "MIC", "setting": "[1]; 32-0.2 μM test concentration", "result": 0.93, "unit": "µM"},
      {"measurement": "MIC", "setting": "[2]; non-replicating TB", "result": 0.83, "unit": "µM"}
    ]},
    {"compound": "O=C1C=Cc2nocc2/C1=C1/Nc2ccccc2C1=O", "note": "[Example P1, 4-(3-oxoindolin-2-ylidene)benzo[c]isoxazol-5(4H)-one]", "values": [
      {"measurement": "half-life", "setting": "[3]", "result": "about 7 or 8 minutes"},
      {"measurement": "half-life", "setting": "[4]", "result": "about 3 or 4 minutes"},
      {"measurement": "MIC", "setting": "[1]", "result": 0.49, "unit": "µM"},
      {"measurement": "MIC", "setting": "[2]; non-replicating TB", "result": 0.48, "unit": "µM"},
      {"measurement": "MIC", "setting": "[5]", "result": 4.05, "unit": "µg/mL"},
      {"measurement": "% P1 remaining", "setting": "[6]; 0 h", "result": 100, "unit": "%"},
      {"measurement": "% P1 remaining", "setting": "[6]; 5 min", "result": 99.2, "unit": "%"},
      {"measurement": "% P1 remaining", "setting": "[6]; 25 min", "result": 99.6, "unit": "%"},
      {"measurement": "% P1 remaining", "setting": "[6]; 0.75 h", "result": 101.3, "unit": "%"},
      {"measurement": "% P1 remaining", "setting": "[6]; 65 min", "result": 99.6, "unit": "%"},
      {"measurement": "% P1 remaining", "setting": "[6]; 80 min", "result": 97.0, "unit": "%"},
      {"measurement": "% P1 remaining", "setting": "[6]; 100 min", "result": 101.6, "unit": "%"},
      {"measurement": "% P1 remaining", "setting": "[6]; 2 h", "result": 102.1, "unit": "%"},
      {"measurement": "% P1 remaining", "setting": "[6]; 140 min", "result": 100.2, "unit": "%"},
      {"measurement": "IC50", "setting": "[7]; African Green monkey kidney cells", "result": "> 50", "unit": "µg/mL"},
      {"measurement": "IC50", "setting": "[7]; Table 7, reaction products of T4MO isoform I100V with feedstock", "result": 20.8, "unit": "µg/mL"},
      {"measurement": "% P1", "setting": "[8]; 0 min", "result": 100, "unit": "%"},
      {"measurement": "% P1", "setting": "[8]; 5 min", "result": 99.9, "unit": "%"},
      {"measurement": "% P1", "setting": "[8]; 25 min", "result": 95.4, "unit": "%"},
      {"measurement": "% P1", "setting": "[8]; 45 min", "result": 97.7, "unit": "%"},
      {"measurement": "% P1", "setting": "[8]; 65 min", "result": 92.1, "unit": "%"},
      {"measurement": "% P1", "setting": "[8]; 85 min", "result": 86.2, "unit": "%"},
      {"measurement": "% P1", "setting": "[8]; 125 min", "result": 86.8, "unit": "%"},
      {"measurement": "% P1", "setting": "[8]; 145 min", "result": 83.5, "unit": "%"}
    ]},
    {"compound": "NNC(=O)c1ccncc1", "note": "[Isoniazid, reference compound]", "values": [
      {"measurement": "MIC", "setting": "[1]", "result": 0.56, "unit": "µM"},
      {"measurement": "MIC", "setting": "[2]", "result": "> 128", "unit": "µM"}
    ]},
    {"compound": "CO[C@H]1/C=C/O[C@@]2(C)Oc3c(C)c(O)c4c(O)c(c(/C=N/N5CCN(C)CC5)c(O)c4c3C2=O)NC(=O)/C(C)=C\\C=C\\[C@H](C)[C@H](O)[C@@H](C)[C@@H](O)[C@@H](C)[C@H](OC(C)=O)[C@@H]1C", "note": "[Rifampin, reference compound]", "values": [
      {"measurement": "MIC", "setting": "[1]", "result": 0.06, "unit": "µM"},
      {"measurement": "MIC", "setting": "[2]", "result": 1.34, "unit": "µM"}
    ]}
  ]
}
